From US8628788B2, “Formulations containing a non-oxidative biocide and a source of active halogen and use thereof in water treatment” (Bromine Compounds, Ltd., priority 2006, dated 2014)

Test system: Pseudomonas aeruginosa (ATCC 15442)
Assay: Simulated biofilm (bacteria entrapped in alginate gel beads)
Type: cell-based
Conditions: 2.5 ppm DBNPA, 30 minutes contact time
From the text: The biofilm simulation was created by entrapping bacteria in alginate gel beads.

Q: Which “log reduction (as compared to control)” value does the source give for `N#CC(Br)(Br)C(N)=O` [DBNPA, 2,2-Dibromo-3-nitrilopropionamide] here?
A: Its value is 3 log reduction.
